The values that follow come from US20030091627A1, “Rate-controlled delivery of macrolides” (priority 2001, published 2003).

For data set [1] the following is noted: acidic pH; cited from earlier work.
The nature of data set [2]: Solubility of clarithromycin along the gastrointestinal tract. In kind it is physicochemical.
A short description of data set [3]: Solubility of clarithromycin as a function of pH (tested in water without a buffer). In kind it is physicochemical.

SMILES strings stand for the structures. ≈ marks a conversion by molar mass, not a printed value.

For the compound `CC[C@H]1OC(=O)[C@H](C)[C@@H](O[C@H]2C[C@@](C)(OC)[C@@H](O)[C@H](C)O2)[C@H](C)[C@@H](O[C@@H]2O[C@H](C)C[C@H](N(C)C)[C@H]2O)[C@](C)(OC)C[C@@H](C)C(=O)[C@H](C)[C@@H](O)[C@]1(C)O` [Clarithromycin], the Stability result in data set [1] is listed as “stable at an acidic pH”. The solubility result in data set [2] (colon, pH 7.5 to 8.5) is “about insoluble”; in data set [2] (duodenum (region of the gastrointestinal tract), read-out: Solubility) it was 5000 µg/mL (≈ 6.68 mM); in data set [2] (stomach (region of the gastrointestinal tract), read-out: Solubility) it was 10000 µg/mL (≈ 13.4 mM); in data set [3] (aqueous buffer, pH 2.4, water without a buffer, read-out: Solubility), around 10000 µg/mL (≈ 13.4 mM); in data set [3] (aqueous buffer, pH 5.4, water without a buffer, read-out: Solubility), around 5500 µg/mL (≈ 7.35 mM); in data set [3] (pH 7.4, water without a buffer) it was “about negligible”.

What is called solubility is the dissolved amount per volume that the medium holds.
